Assay results: US8871753B2, “Macrocyclic compounds and their use as kinase inhibitors” (Incyte Corporation, priority 2008, dated 2014)

How the values were obtained:
Format in all cases: biochemical
[1] = molecular target: TYK2 (Homo sapiens, UniProt P29597); assay: TYK2 kinase inhibition (Table A1); details: Table D1
[2] = molecular target: T1, human JAK1 (a.a. 837-1142) (Homo sapiens, UniProt P23458); assay: In vitro JAK kinase assay (HTRF, phosphorylation of a biotinylated peptide), JAK1; details: Table D1; read-out: JAK1 IC50
T1 construct: human JAK1 (a.a. 837-1142); His tag (N); made in house; host or cells: insect cells (baculovirus)
T1 sequence (P23458 849-1154): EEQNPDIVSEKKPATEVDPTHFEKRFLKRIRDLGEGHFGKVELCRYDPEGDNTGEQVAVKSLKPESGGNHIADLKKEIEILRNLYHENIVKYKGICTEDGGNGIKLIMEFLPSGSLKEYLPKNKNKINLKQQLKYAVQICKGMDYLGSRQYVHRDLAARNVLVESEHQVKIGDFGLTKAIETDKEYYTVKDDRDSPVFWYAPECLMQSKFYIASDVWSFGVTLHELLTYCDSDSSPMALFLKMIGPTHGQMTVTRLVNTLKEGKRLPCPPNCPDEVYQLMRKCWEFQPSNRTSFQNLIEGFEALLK
Outline: (§1)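 Kinase reactions ran at room temperature for 1 h with ATP matched per isoform (JAK1 90 μM, JAK2 30 μM, JAK3 3 μM). After an EDTA stop, the phosphorylated biotin-peptide was read by HTRF using Eu-Py20 and SA-APC after 40 min binding.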

[3] = molecular target: T2, human JAK3 (a.a. 781-1124) (Homo sapiens, UniProt P52333); assay: In vitro JAK kinase assay (HTRF, phosphorylation of a biotinylated peptide), JAK3; details: Table D1
T2 construct: JAK3 (a.a. 781-1124); His tag (N); made in house; host or cells: insect cells (baculovirus)
T2 sequence (P52333 781-1124): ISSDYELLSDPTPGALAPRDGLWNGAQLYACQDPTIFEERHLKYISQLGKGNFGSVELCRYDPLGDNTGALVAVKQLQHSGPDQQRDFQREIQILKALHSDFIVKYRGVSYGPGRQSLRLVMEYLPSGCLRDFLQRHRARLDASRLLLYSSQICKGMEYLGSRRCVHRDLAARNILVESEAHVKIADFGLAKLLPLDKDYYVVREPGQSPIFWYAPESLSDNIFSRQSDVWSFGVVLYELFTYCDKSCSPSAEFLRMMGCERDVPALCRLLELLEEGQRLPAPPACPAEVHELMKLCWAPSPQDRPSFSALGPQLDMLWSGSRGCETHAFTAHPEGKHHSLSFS
Outline: as §1

[4] = molecular target: T3, human JAK2 (a.a. 828-1132) (Homo sapiens, UniProt O60674); assay: In vitro JAK kinase assay (HTRF, phosphorylation of a biotinylated peptide), JAK2; details: Table D1
T3 construct: JAK2 (a.a. 828-1132); His tag (N); made in house; host or cells: insect cells (baculovirus)
T3 sequence (O60674 828-1132): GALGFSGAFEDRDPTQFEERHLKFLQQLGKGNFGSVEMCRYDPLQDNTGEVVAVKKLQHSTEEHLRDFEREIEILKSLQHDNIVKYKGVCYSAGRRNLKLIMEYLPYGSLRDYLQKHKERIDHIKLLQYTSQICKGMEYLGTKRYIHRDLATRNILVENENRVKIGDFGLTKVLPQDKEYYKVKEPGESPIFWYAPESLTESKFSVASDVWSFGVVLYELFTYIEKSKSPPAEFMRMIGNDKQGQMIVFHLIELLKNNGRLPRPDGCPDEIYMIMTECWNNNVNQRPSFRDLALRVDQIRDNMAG
Outline: as §1

Chain of TYK2 (P29597 whole entry): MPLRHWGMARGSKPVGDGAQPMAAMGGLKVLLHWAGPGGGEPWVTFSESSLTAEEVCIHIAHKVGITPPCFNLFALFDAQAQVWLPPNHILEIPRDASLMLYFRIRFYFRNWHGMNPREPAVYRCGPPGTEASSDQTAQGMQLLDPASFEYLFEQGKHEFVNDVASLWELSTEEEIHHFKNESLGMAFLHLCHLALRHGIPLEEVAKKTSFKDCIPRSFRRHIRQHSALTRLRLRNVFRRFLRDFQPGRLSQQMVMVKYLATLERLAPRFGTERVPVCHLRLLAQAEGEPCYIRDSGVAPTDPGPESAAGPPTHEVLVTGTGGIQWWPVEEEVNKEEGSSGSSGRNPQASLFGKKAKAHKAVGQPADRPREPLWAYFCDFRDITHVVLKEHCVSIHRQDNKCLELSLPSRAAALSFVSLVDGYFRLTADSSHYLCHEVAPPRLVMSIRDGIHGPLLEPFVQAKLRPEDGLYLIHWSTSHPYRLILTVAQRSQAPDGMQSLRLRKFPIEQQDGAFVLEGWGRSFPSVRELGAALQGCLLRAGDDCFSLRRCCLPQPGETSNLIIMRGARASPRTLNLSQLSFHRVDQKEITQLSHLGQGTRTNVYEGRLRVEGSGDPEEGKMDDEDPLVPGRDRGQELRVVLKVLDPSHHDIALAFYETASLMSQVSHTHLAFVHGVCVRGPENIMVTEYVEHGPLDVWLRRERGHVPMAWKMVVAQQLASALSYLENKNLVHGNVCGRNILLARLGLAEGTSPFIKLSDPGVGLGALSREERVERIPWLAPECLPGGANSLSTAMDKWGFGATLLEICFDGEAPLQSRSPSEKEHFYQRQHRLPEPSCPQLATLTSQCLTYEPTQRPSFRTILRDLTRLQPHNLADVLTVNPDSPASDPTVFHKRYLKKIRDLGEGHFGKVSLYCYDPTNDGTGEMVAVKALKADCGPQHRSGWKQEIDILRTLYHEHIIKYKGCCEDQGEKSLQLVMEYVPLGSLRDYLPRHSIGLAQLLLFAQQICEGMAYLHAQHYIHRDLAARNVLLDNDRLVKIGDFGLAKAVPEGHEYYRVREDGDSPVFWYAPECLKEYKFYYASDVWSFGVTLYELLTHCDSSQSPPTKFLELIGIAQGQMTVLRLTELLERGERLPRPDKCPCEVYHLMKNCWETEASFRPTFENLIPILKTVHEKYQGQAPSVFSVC

Row | IC50 [1] | IC50 [2] | IC50 [3] | IC50 [4] | SMILES
1 | > 400 nM | 100 nM | > 400 nM | > 400 nM | O=C(COc1ccc2cc1CCc1cncc(c1)Nc1ncc(Cl)c(n1)N2)N1CCN(c2ncccn2)CC1 [Example D233, 6-Chloro-12-[2-oxo-2-(4-pyrimidin-2-ylpiperazin-1-yl)ethoxy]-2,4,8,18,22-pentaazatetracyclo[14.3.1.1(3,7).1(9,13)]docosa-1(20),3(22),4,6,9(21),10,12,16,18-nonaene tris(trifluoroacetate)]
2 | > 400 nM | 41 nM | > 400 nM | 160 nM | O=C(COc1ccc2cc1CCc1cncc(c1)Nc1ncc(Cl)c(n1)N2)N1CCN(c2ccccc2)CC1 [Example D234, 6-Chloro-12-[2-oxo-2-(4-phenylpiperazin-1-yl)ethoxy]-2,4,8,18,22-pentaazatetracyclo[14.3.1.1(3,7).1(9,13)]docosa-1(20),3(22),4,6,9(21),10,12,16,18-nonaene tris(trifluoroacetate)]
3 | > 400 nM | 64 nM | > 400 nM | > 400 nM | N#Cc1ccccc1N1CCN(C(=O)COc2ccc3cc2CCc2cncc(c2)Nc2ncc(Cl)c(n2)N3)CC1 [Example D235, 2-[4-({[6-Chloro-2,4,8,18,22-pentaazatetracyclo[14.3.1.1(3,7).1(9,13)]docosa-1(20),3(22),4,6,9(21),10,12,16,18-nonaen-12-yl]oxy}acetyl)piperazin-1-yl]benzonitrile tris(trifluoroacetate)]
4 | > 400 nM | 90 nM | > 400 nM | 288 nM | N#Cc1ccc(N2CCN(C(=O)COc3ccc4cc3CCc3cncc(c3)Nc3ncc(Cl)c(n3)N4)CC2)cc1 [Example D236, 4-[4-({[6-Chloro-2,4,8,18,22-pentaazatetracyclo[14.3.1.1(3,7).1(9,13)]docosa-1(20),3(22),4,6,9(21),10,12,16,18-nonaen-12-yl]oxy}acetyl)piperazin-1-yl]benzonitrile tris(trifluoroacetate)]
5 | > 400 nM | 29 nM | > 400 nM | 180 nM | Cc1ccnc(N2CCN(C(=O)COc3ccc4cc3CCc3cncc(c3)Nc3ncc(Cl)c(n3)N4)CC2)c1 [Example D237, 6-Chloro-12-{2-[4-(4-methylpyridin-2-yl)piperazin-1-yl]-2-oxoethoxy}-2,4,8,18,22-pentaazatetracyclo[14.3.1.1(3,7).1(9,13)]docosa-1(20),3(22),4,6,9(21),10,12,16,18-nonaene tris(trifluoroacetate)]
6 | > 400 nM | 41 nM | > 400 nM | > 400 nM | N#Cc1cccnc1N1CCN(C(=O)COc2ccc3cc2CCc2cncc(c2)Nc2ncc(Cl)c(n2)N3)CC1 [Example D238, 2-[4-({[6-Chloro-2,4,8,18,22-pentaazatetracyclo[14.3.1.1(3,7).1(9,13)]docosa-1(20),3(22),4,6,9(21),10,12,16,18-nonaen-12-yl]oxy}acetyl)piperazin-1-yl]nicotinonitrile tris(trifluoroacetate)]
7 | > 400 nM | 101 nM | > 400 nM | 208 nM | N#Cc1ccc(N2CCN(C(=O)COc3ccc4cc3CCc3cncc(c3)Nc3ncc(Cl)c(n3)N4)CC2)nc1 [Example D239, 6-[4-({[6-Chloro-2,4,8,18,22-pentaazatetracyclo[14.3.1.1(3,7).1(9,13)]docosa-1(20),3(22),4,6,9(21),10,12,16,18-nonaen-12-yl]oxy}acetyl)piperazin-1-yl]nicotinonitrile tris(trifluoroacetate)]

Second part, the compound before the results:

Row | SMILES | IC50 [1] | IC50 [2] | IC50 [3] | IC50 [4]
8 | Clc1cnc2nc1Nc1ccc(OCC3CCNCC3)c(c1)CCc1cncc(c1)N2 [Example D225, 6-Chloro-12-(piperidin-4-ylmethoxy)-2,4,8,18,22-pentaazatetracyclo[14.3.1.1(3,7).1(9,13)]docosa-1(20),3(22),4,6,9(21),10,12,16,18-nonaene tris(trifluoroacetate)] | > 400 nM | 180 nM | > 400 nM | > 400 nM
9 | Cc1cc(C(=O)N2CCC(COc3ccc4cc3CCc3cncc(c3)Nc3ncc(Cl)c(n3)N4)CC2)no1 [Example D226, 6-Chloro-12-({1-[(5-methylisoxazol-3-yl)carbonyl]piperidin-4-yl}methoxy)-2,4,8,18,22-pentaazatetracyclo[14.3.1.1(3,7).1(9,13)]docosa-1(20),3(22),4,6,9(21),10,12,16,18-nonaene bis(trifluoroacetate)] | > 400 nM | 255 nM | > 400 nM | > 400 nM
10 | CC(=O)N1CCC(COc2ccc3cc2CCc2cncc(c2)Nc2ncc(Cl)c(n2)N3)CC1 [Example D227, 12-[(1-Acetylpiperidin-4-yl)methoxy]-6-chloro-2,4,8,18,22-pentaazatetracyclo[14.3.1.1(3,7).1(9,13)]docosa-1(20),3(22),4,6,9(21),10,12,16,18-nonaene bis(trifluoroacetate)] | > 400 nM | 72 nM | > 400 nM | 148 nM
11 | O=C(Nc1ccccc1)N1CCC(COc2ccc3cc2CCc2cncc(c2)Nc2ncc(Cl)c(n2)N3)CC1 [Example D228, 4-({[6-Chloro-2,4,8,18,22-pentaazatetracyclo[14.3.1.1(3,7).1(9,13)]docosa-1(20),3(22),4,6,9(21),10,12,16,18-nonaen-12-yl]oxy}methyl)-N-phenylpiperidine-1-carboxamide bis(trifluoroacetate)] | > 400 nM | > 400 nM | > 400 nM | 371 nM
12 | O=C(COc1ccc2cc1CCc1cncc(c1)Nc1ncc(Cl)c(n1)N2)N1CCNCC1 [Example D229, 6-Chloro-12-(2-oxo-2-piperazin-1-ylethoxy)-2,4,8,18,22-pentaazatetracyclo[14.3.1.1(3,7).1(9,13)]docosa-1(20),3(22),4,6,9(21),10,12,16,18-nonaene tris(trifluoroacetate)] | > 400 nM | 153 nM | > 400 nM | 235 nM
13 | O=C(COc1ccc2cc1CCc1cncc(c1)Nc1ncc(Cl)c(n1)N2)N1CCN(c2nccs2)CC1 [Example D230, 6-Chloro-12-{2-oxo-2-[4-(1,3-thiazol-2-yl)piperazin-1-yl]ethoxy}-2,4,8,18,22-pentaazatetracyclo[14.3.1.1(3,7).1(9,13)]docosa-1(20),3(22),4,6,9(21),10,12,16,18-nonaene tris(trifluoroacetate)] | > 400 nM | 25 nM | > 400 nM | 47 nM
14 | O=C(COc1ccc2cc1CCc1cncc(c1)Nc1ncc(Cl)c(n1)N2)N1CCN(c2ccccn2)CC1 [Example D231, 6-Chloro-12-[2-oxo-2-(4-pyridin-2-ylpiperazin-1-yl)ethoxy]-2,4,8,18,22-pentaazatetracyclo[14.3.1.1(3,7).1(9,13)]docosa-1(20),3(22),4,6,9(21),10,12,16,18-nonaene tris(trifluoroacetate)] | > 400 nM | 52 nM | > 400 nM | 217 nM
15 | O=C(COc1ccc2cc1CCc1cncc(c1)Nc1ncc(Cl)c(n1)N2)N1CCN(c2cnccn2)CC1 [Example D232, 6-Chloro-12-[2-oxo-2-(4-pyrazin-2-ylpiperazin-1-yl)ethoxy]-2,4,8,18,22-pentaazatetracyclo[14.3.1.1(3,7).1(9,13)]docosa-1(20),3(22),4,6,9(21),10,12,16,18-nonaene tris(trifluoroacetate)] | > 400 nM | 32 nM | > 400 nM | 160 nM
